Laboratory results published in patent US11839613B2, “Pyrimidine derivatives as PGE2 receptor modulators” (IDORSIA PHARMACEUTICALS LTD, priority 2017, dated 2023).

Assays:
PTGER2 (EP2) = PTGER2 (EP2) (Homo sapiens (Human), UniProt P43116); experiment: hEP2 b-arrestin assay (PathHunter HEK 293 PTGER2 b-arrestin cells); type: cell-based; details: antagonistic activity, beta-arrestin assay; read-out: hEP2 b-arr IC50
Description: Plate is pre-incubated 15 minutes at 37° C. Then five microliters of PGE2 (final conc. 5 μM) are transferred into the assay plate. Plate is incubated 120 minutes at 37° C.
(each concentration is measured in duplicate)

EP2 = EP2 (Homo sapiens (Human), UniProt P43116); experiment: hEP2 cAMP assay (SF295 glioblastoma cells, HTRF cAMP); type: cell-based; details: antagonistic activity
Procedure, shortened: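 PGE2-driven cAMP accumulation was measured by HTRF in SF295 cells, which express endogenous EP2 only. Cells in assay buffer with 2 mM IBMX were pre-incubated 45 min at RT, then incubated 30 min at RT. Detection used competition between cellular cAMP and d2-cAMP for a cryptate anti-cAMP antibody.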

EP4 = EP4 (Homo sapiens (Human), UniProt P35408); experiment: hEP4 cAMP assay (BT549 breast cancer cells, HTRF cAMP); type: cell-based; details: antagonistic activity, PGE2 6 nM
Procedure, shortened: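 cAMP accumulation quantified by HTRF competition between cellular cAMP and d2-labeled cAMP for cryptate anti-cAMP antibody. Cells: endogenously EP4-expressing BT549, buffer with 2 mM IBMX; 45 min RT compound preincubation preceded 30 min RT challenge with PGE2 at 6 nM final.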

PTGER4 (EP4) = PTGER4 (EP4) (Homo sapiens (Human), UniProt P35408)
Sequence of PTGER4 (EP4) (P35408 whole entry): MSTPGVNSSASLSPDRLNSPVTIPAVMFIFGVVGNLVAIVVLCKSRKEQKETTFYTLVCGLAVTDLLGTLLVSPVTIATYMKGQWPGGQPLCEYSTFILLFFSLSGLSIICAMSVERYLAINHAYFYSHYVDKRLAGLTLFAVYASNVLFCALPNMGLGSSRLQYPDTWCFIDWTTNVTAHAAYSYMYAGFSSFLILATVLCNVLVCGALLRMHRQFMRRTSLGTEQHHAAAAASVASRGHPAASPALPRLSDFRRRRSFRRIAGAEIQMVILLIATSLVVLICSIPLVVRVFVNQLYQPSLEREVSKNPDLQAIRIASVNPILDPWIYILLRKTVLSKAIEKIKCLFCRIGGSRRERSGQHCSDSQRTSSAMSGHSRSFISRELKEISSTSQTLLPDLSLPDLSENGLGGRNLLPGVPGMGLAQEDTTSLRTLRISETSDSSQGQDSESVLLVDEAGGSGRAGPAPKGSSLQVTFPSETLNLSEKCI

Sequence of EP4 (P35408 whole entry): as above
Sequence of EP2 (P43116 whole entry): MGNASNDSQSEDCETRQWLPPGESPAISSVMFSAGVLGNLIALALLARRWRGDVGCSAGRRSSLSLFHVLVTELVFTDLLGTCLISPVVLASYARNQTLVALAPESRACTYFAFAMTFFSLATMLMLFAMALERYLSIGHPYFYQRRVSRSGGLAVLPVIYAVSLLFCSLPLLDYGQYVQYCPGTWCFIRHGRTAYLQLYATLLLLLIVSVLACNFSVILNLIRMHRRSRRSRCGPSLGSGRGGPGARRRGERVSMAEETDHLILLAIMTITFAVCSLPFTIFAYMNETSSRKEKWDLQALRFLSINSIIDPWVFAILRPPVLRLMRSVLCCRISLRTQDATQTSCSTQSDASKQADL
Sequence of PTGER2 (EP2) (P43116 whole entry): as above

Row | SMILES | IC50 (PTGER2 (EP2)) [nM] | IC50 (EP2) [nM] | IC50 (EP4) [nM] | IC50 (PTGER4 (EP4)) [nM] | IC50 (EP4; BT549 cells) [nM]
1 | CCOc1cc(-c2cc(NCCc3ccc4scc(C#N)c4c3)ncn2)ccc1C(=O)O [Ex 253] | 521 | 158 | 373 | 671 | 
2 | CSc1cc(-c2cc(NCCc3ccc4sccc4c3C)ncn2)ccc1C(=O)O [Ex 204] | 12 | 29 | 186 | 633 | 
3 | CSc1cc(-c2cc(NCCc3ccc4scc(C#N)c4c3)ncn2)ccc1C(=O)O [Ex 212] | 255 | 50 | 253 | 340 | 
4 | CCOc1cc(-c2cc(NCCc3c(F)cc4ccccc4c3F)ncn2)sc1C(=O)O [Ex 335] | 100 | 268 | 3 | 12 | 
5 | CCOc1cc(-c2cc(NCCc3ccc4ccccc4c3C)ncn2)sc1CC(=O)O [Ex 148] | 174 | 126 | 141 | 46 | 
6 | CCOc1cc(-c2cc(NCCc3cc4c(cc3OC)OCCO4)ncn2)sc1C(=O)O [Ex 26] | 19 | 19 | 16 | 22 | 
7 | CCOc1cc(-c2cc(NCCc3c(OC)cc4ccccc4c3C)ncn2)sc1C(=O)O [Ex 1] | 6 | 8 | 1 | 2 | 
8 | COc1cc2c(cc1CCNc1cc(-c3ccc(C(=O)O)c(CC(C)C)c3)ncn1)OCCO2 [Example 416] | 245 | 123 |  | 82 | 83
9 | CCOc1cc2ccccc2cc1CCNc1cc(-c2ccc(C(=O)O)c(OC3CCC3)c2)ncn1 [Ex 171] | 83 | 120 | 181 | 62 | 
10 | COc1cc2ccccc2c(F)c1CCNc1cc(-c2ccc(C(=O)O)c(SC)c2)ncn1 [Ex 29] | 53 | 52 | 17 | 33 | 
11 | CSc1cc(-c2cc(NCCc3ccc4cccc(F)c4c3)ncn2)ccc1C(=O)O [Ex 243] | 493 | 2100 | 355 | 147 | 
12 | C#Cc1c(CCNc2cc(-c3cc(OCC)c(C(=O)O)s3)ncn2)ccc2ccccc12 [Ex 17] | 108 | 171 | 9 | 8 | 
13 | COc1cc2ccccc2c(F)c1CCNc1cc(-c2ccc(C(=O)O)c(OC3CCC3)c2)ncn1 [Ex 25] | 96 | 98 | 22 | 16 | 
14 | CSc1cc(-c2cc(NCCc3cc4c(cc3C#N)OCCO4)ncn2)ccc1C(=O)O [Ex 97] | 192 | 78 | 63 | 147 | 
15 | N#Cc1csc2ccc(CCNc3cc(-c4ccc(C(=O)O)c(OC5CCC5)c4)ncn3)cc12 [Ex 273] | 289 | 140 | 455 | 221 | 
16 | CSc1cc(-c2cc(NCCc3ccc4scnc4c3)ncn2)ccc1C(=O)O [Ex 237] | 388 | 160 | 335 | 908 | 
17 | CCOc1cc2ccccc2cc1CCNc1cc(-c2ccc(C(=O)O)c(OCC)c2)ncn1 [Ex 188] | 45 | 142 | 206 | 105 | 
18 | CCOc1cc(-c2cc(NCCc3ccc4ncoc4c3)ncn2)sc1C(=O)O [Ex 146] | 258 | 115 | 137 | 361 | 
19 | CCOc1cc(-c2cc(NCCc3cc4c(cc3C#N)OCCO4)ncn2)sc1C(=O)O [Ex 6] | 11 | 37 | 4 | 6 | 
20 | CCOc1cc(-c2cc(NCCc3ccc4sccc4c3C)ncn2)sc1C(=O)O [Ex 20] | 27 | 11 | 12 | 74 | 
21 | CCOc1cc(-c2cc(NCCc3cc4ccsc4cc3OC)ncn2)ccc1C(=O)O [Ex 109] | 34 | 12 | 78 | 101 | 
22 | CCOc1cc(-c2cc(NCCc3ccc4c(c3)COC4)ncn2)sc1C(=O)O [Ex 164] | 269 | 149 | 163 | 93 | 
23 | CCOc1cc(-c2cc(NCCc3ccc4sncc4c3)ncn2)sc1C(=O)O [Ex 135] | 198 | 171 | 115 | 172 | 
